Data on nine compounds can be found in patent US20250346606A1, “CAMPTOTHECIN COMPOUND, PREPARATION METHOD THEREFOR, AND APPLICATION THEREOF” (SICHUAN KELUN-BIOTECH BIOPHARMACEUTICAL CO., LTD., priority 2021, published 2025).

Where two headings read alike, the source gives them in different places.

What all share (assay type): cell-based, Human
In experiment [1] the test system is HT29 cells. In words: Inhibitory effect of compounds on HT29 cell proliferation. Conditions: read-out: IC50, inhibitory activity on HT29 cell proliferation. The method, then: (1) Cell plating: First, tumor cells HT29 were cultured in corresponding medium, then digested with trypsin, centrifuged, resuspended, and counted, and the cells were adjusted to an appropriate concentration for plating.
(§1) Co-incubation of the compound of the present disclosure and tumor cells: after the cells adhered to the wall, the medium was removed, and the diluted bioactive molecule (the compound of the present disclosure) was added to the wells of the above plate, and incubated for 72 h.
(§2) In vitro cell viability detection: After the incubation, 50 μL of Cell Counting-Lite™ 2.0 reagent (Vazyme/Novazyme) was added to each well, shaken and mixed well in the dark, reacted for 10 minutes, and then the detection was carried out with a microplate reader (manufacturer: BMG, Model: PHERAStar-FS) for reading. The background RLU was obtained by using cell-free medium (with Cell Counting-Lite™), and the vehicle RLU was obtained by using cell-containing medium (with Cell Counting-Lite™). Cell inhibition rate=1−(sample RLU−background RLU)/(solvent RLU−background RLU)×100%. According to the four-parameter model fitting curve, the half maximal inhibitory concentration (IC50) of the compound was calculated, and the detection results were shown in Table 2.

Experiment [2] deals with NCI-N87 cells. In words: Inhibitory effect of compounds on NCI-N87 cell proliferation. The note with it: Homo sapiens, NCI-N87, 72 h, read-out: IC50, inhibitory activity on NCI-N87 cell proliferation, NCI-N87 human gastric cancer cells, 72 h incubation, Cell Counting-Lite 2.0. The method, then: (1) Cell plating: First, tumor cells NCI-N87 were cultured in corresponding medium, then digested with trypsin, centrifuged, resuspended, and counted, and the cells were adjusted to an appropriate concentration for plating.
as §1
as §2, with “Table 12.” for “Table 2.”

Experiment [3] relates to HCC1806 cells. Kind of experiment: Inhibitory effect of compounds on HCC1806 cell proliferation. The note with it: Homo sapiens, HCC1806, 72 h, read-out: IC50, inhibitory activity on HCC1806 cell proliferation, HCC1806 human breast squamous carcinoma cells, 72 h incubation, Cell Counting-Lite 2.0. The method, then:
(1) Cell plating: First, tumor cells HCC1806 were cultured in corresponding medium, then digested with trypsin, centrifuged, resuspended, and counted, and the cells were adjusted to an appropriate concentration for plating.
as §1
as §2, with “Table 6.” for “Table 2.”

For the compound `CC[C@@]1(O)C(=O)OCc2c1cc1n(c2=O)Cc2c-1nc1cc(F)c(Cl)c3c1c2[C@@H](N)CC3` (single isomer, unassigned) [Example 8 (3-1-A)], the IC50 in experiment [1] (Homo sapiens, HT-29, 72 h) is 0.16 nM; in experiment [2], 0.37 nM.

With `CC[C@@]1(O)C(=O)OCc2c1cc1n(c2=O)Cc2c-1nc1cc(F)c(Cl)c3c1c2[C@H](N)CC3` (single isomer, unassigned) [Example 8 (3-1-B)], the IC50 in experiment [1] (Homo sapiens, HT-29, 72 h) came to 0.71 nM; in experiment [2] it was 1.34 nM.

As to `CC[C@@]1(O)C(=O)OCc2c1cc1n(c2=O)Cc2c-1nc1cc(F)c(C)c3c1c2[C@@](C)(NC(=O)C1(O)CC1)CC3` (single isomer, unassigned) [Example 14 (5-16-A)], the IC50 in experiment [1] (Homo sapiens, HT-29, 72 h) worked out at 3.87 nM.

Consider `CC[C@@]1(O)C(=O)OCc2c1cc1n(c2=O)Cc2c-1nc1cc(F)c(Cl)c3c1c2[C@H](NC[C@@H](C)O)CC3` (single isomer, unassigned) [Example 25 (3-26-B)], for which the IC50 amounted to 4.93 nM in experiment [3] and 25.3 nM in experiment [2].

As for `CC[C@@]1(O)C(=O)OCc2c1cc1n(c2=O)Cc2c-1nc1cc(Cl)c(C)c3c1c2[C@H](NC(=O)CO)CC3` [Example 3 (2-2-B), N-((1R,9S)-5-chloro-9-ethyl-9-hydroxy-4-methyl-10,13-dioxo-2,3,9,10,13,15-hexahydro-1H,12H-benzo[de]pyrano[3′,4′:6,7]indolizino[1,2-b]quinolin-1-yl)-2-hydroxyacetamide], the IC50 in experiment [1] (Homo sapiens, HT-29, 72 h) turned out to be 7.52 nM.

With `CC[C@@]1(O)C(=O)OCc2c1cc1n(c2=O)Cc2c-1nc1cc(Cl)c(C)c3c1c2[C@H](NC(=O)[C@H](O)C1CC1)CC3` [Example 5 (2-12-D), (2R)—N-((1R,9S)-5-chloro-9-ethyl-9-hydroxy-4-methyl-10,13-dioxo-2,3,9,10,13,15-hexahydro-1H,12H-benzo[de]pyrano[3′,4′:6,7]indolizino[1,2-b]quinolin-1-yl)-2-cyclopropyl-2-hydroxyacetamide], the IC50 in experiment [1] (Homo sapiens, HT-29, 72 h) stood at 3.29 nM.

For `CC[C@@]1(O)C(=O)OCc2c1cc1n(c2=O)Cc2c-1nc1cc(Cl)c(C)c3c1c2[C@@H](NCC(C)(C)O)CC3` [Example 6 (2-17-A), N-((1S,9S)-5-chloro-9-ethyl-9-hydroxy-4-methyl-10,13-dioxo-2,3,9,10,13,15-hexahydro-1H,12H-benzo[de]pyrano[3′,4′:6,7]indolizino[1,2-b]quinolin-1-yl)-2-hydroxy-2-methylpropylamine], the IC50 in experiment [1] (Homo sapiens, HT-29, 72 h) turned out to be 1.24 nM.

In the case of `CC[C@@]1(O)C(=O)OCc2c1cc1n(c2=O)Cc2c-1nc1cc(Cl)c(C)c3c1c2[C@H](NCC(C)(C)O)CC3` [Example 6 (2-17-B), N-((1R,9S)-5-chloro-9-ethyl-9-hydroxy-4-methyl-10,13-dioxo-2,3,9,10,13,15-hexahydro-1H, 12H-benzo[de]pyrano[3′,4′:6,7]indolizino[1,2-b]quinolin-1-yl)-2-hydroxy-2-methylpropylamine], in experiment [1] (Homo sapiens, HT-29, 72 h), the IC50 turned out to be 1.59 nM.

Regarding `CC[C@@]1(O)C(=O)OCc2c1cc1n(c2=O)Cc2c-1nc1cc(F)c(C)cc1c2CCN(C(=O)CO)C(C)C` [Example 10 (4-12), (S)—N-(2-(4-ethyl-8-fluoro-4-hydroxy-9-methyl-3,14-dioxo-3,4,12,14-tetrahydro-1H-pyrano[3′,4′:6,7]indolizino[1,2-b]quinolin-11-yl)ethyl)-2-hydroxy-N-isopropylacetamide], in experiment [1] (HT-29, HT29 human colon cancer cells, 72 h incubation, Cell Counting-Lite 2.0), the IC50 was found to be 4.79 nM.
